# ChEMBL document CHEMBL3885861, “Open TG-GATES”
# Species: Rattus norvegicus
# Assay: Open TG-GATES - Regimen: Single
# Type: toxicity, organism-based, Sprague-Dawley
# Set-up: regimen Single, gender Male, age 6 weeks
# Conditions: in vivo, po, 200 mg/kg, route gavage, dose level High; for APTT / Bas / Eos / Fbg / Hb / Ht / Lym / MCH / MCHC / MCV / Mono / Neu / PT / Plat / RBC / Ret / WBC: tissue Blood; for KIDNEY_L / KIDNEY_R / KIDNEY_TOTAL: tissue Kidney; for LIVER: tissue Liver; for A/G / ALP / ALT / AST / BUN / CRE / Ca / Cl / DBIL / GLC / IP / K / LDH / Na / PL / RALB / TBIL / TC / TG / TP / gamma-GTP: tissue Plasma
compound,measurement,setting,value
CCc1oc2ccccc2c1C(=O)c1cc(Br)c(O)c(Br)c1 [BENZBROMARONE],TERMINAL_BW,3 h,215.1 g
same,APTT,3 h,17.8 s
same,Bas,3 h,0%
same,Eos,3 h,1%
same,Fbg,3 h,227 mg/dL
same,Hb,3 h,13.3 g/dL
same,Ht,3 h,39.8%
same,Lym,3 h,76.4%
same,MCH,3 h,22.2 pg
same,MCHC,3 h,33.3%
same,MCV,3 h,66.5 fL
same,Mono,3 h,4.4%
same,Neu,3 h,18.4%
same,PT,3 h,12.3 s
same,Plat,3 h,98.6 x10_4/uL
same,RBC,3 h,600 x10_4/ul
same,Ret,3 h,7.7%
same,WBC,3 h,85.4 x10_2/uL
same,KIDNEY_L,3 h,1 g
same,KIDNEY_R,3 h,0.9 g
same,KIDNEY_TOTAL,3 h,1.9 g
same,LIVER,3 h,9.9 g
same,A/G,3 h,1.9
same,ALP,3 h,814 IU/L
same,ALT,3 h,37.2 IU/L
same,AST,3 h,70 IU/L
same,BUN,3 h,17.2 mg/dL
same,CRE,3 h,0.8 mg/dL
same,Ca,3 h,9.9 mg/dL
same,Cl,3 h,103.4 meq/L
same,DBIL,3 h,0.096 mg/dL
same,GLC,3 h,252.6 mg/dL
same,IP,3 h,10 mg/dL
same,K,3 h,5.3 meq/L
same,LDH,3 h,137.2 IU/L
same,Na,3 h,138.4 meq/L
same,PL,3 h,136.8 mg/dL
same,RALB,3 h,3.6 g/dL
same,TBIL,3 h,0.4 mg/dL
same,TC,3 h,75.6 mg/dL
same,TG,3 h,69.6 mg/dL
same,TP,3 h,5.5 g/dL
same,gamma-GTP,3 h,1 IU/L
same,TERMINAL_BW,6 h,213.5 g
same,APTT,6 h,16.3 s
same,Bas,6 h,0%
same,Eos,6 h,0.8%
same,Fbg,6 h,239.2 mg/dL
same,Hb,6 h,13.2 g/dL
same,Ht,6 h,39.6%
same,Lym,6 h,80.2%
same,MCH,6 h,21.6 pg
same,MCHC,6 h,33.3%
same,MCV,6 h,64.8 fL
same,Mono,6 h,5.4%
same,Neu,6 h,13.6%
same,PT,6 h,12.2 s
same,Plat,6 h,97.5 x10_4/uL
same,RBC,6 h,612 x10_4/ul
same,Ret,6 h,7.9%
same,WBC,6 h,66.9 x10_2/uL
same,KIDNEY_L,6 h,1 g
same,KIDNEY_R,6 h,1 g
same,KIDNEY_TOTAL,6 h,2 g
same,LIVER,6 h,9.5 g
same,A/G,6 h,2
same,ALP,6 h,776.8 IU/L
same,ALT,6 h,34 IU/L
same,AST,6 h,59 IU/L
same,BUN,6 h,14.2 mg/dL
same,CRE,6 h,0.7 mg/dL
same,Ca,6 h,10.5 mg/dL
same,Cl,6 h,101.4 meq/L
same,DBIL,6 h,0.024 mg/dL
same,GLC,6 h,212.4 mg/dL
same,IP,6 h,10.3 mg/dL
same,K,6 h,4.8 meq/L
same,LDH,6 h,137.4 IU/L
same,Na,6 h,139.2 meq/L
same,PL,6 h,137 mg/dL
same,RALB,6 h,3.8 g/dL
same,TBIL,6 h,0.4 mg/dL
same,TC,6 h,78.4 mg/dL
same,TG,6 h,56.6 mg/dL
same,TP,6 h,5.7 g/dL
same,gamma-GTP,6 h,1.4 IU/L
same,TERMINAL_BW,9 h,213.1 g
same,APTT,9 h,17 s
same,Bas,9 h,0%
same,Eos,9 h,0%
same,Fbg,9 h,240 mg/dL
same,Hb,9 h,13.2 g/dL
same,Ht,9 h,39.4%
same,Lym,9 h,79.2%
same,MCH,9 h,22.2 pg
same,MCHC,9 h,33.6%
same,MCV,9 h,66 fL
same,Mono,9 h,2.8%
same,Neu,9 h,17.8%
same,PT,9 h,12.2 s
same,Plat,9 h,104 x10_4/uL
same,RBC,9 h,596.4 x10_4/ul
same,Ret,9 h,8.2%
same,WBC,9 h,96.1 x10_2/uL
same,KIDNEY_L,9 h,1 g
same,KIDNEY_R,9 h,1 g
same,KIDNEY_TOTAL,9 h,2 g
same,LIVER,9 h,9.2 g
same,A/G,9 h,2.1
same,ALP,9 h,868 IU/L
same,ALT,9 h,34.4 IU/L
same,AST,9 h,60.8 IU/L
same,BUN,9 h,16.6 mg/dL
same,CRE,9 h,0.7 mg/dL
same,Ca,9 h,10.4 mg/dL
same,Cl,9 h,103.4 meq/L
same,DBIL,9 h,0.04 mg/dL
same,GLC,9 h,207.8 mg/dL
same,IP,9 h,10.7 mg/dL
same,K,9 h,4.9 meq/L
same,LDH,9 h,178.8 IU/L
same,Na,9 h,138.6 meq/L
same,PL,9 h,143.8 mg/dL
same,RALB,9 h,3.9 g/dL
same,TBIL,9 h,0.3 mg/dL
same,TC,9 h,81.2 mg/dL
same,TG,9 h,65.6 mg/dL
same,TP,9 h,5.9 g/dL
same,gamma-GTP,9 h,1.4 IU/L
same,TERMINAL_BW,24 h,217.2 g
same,APTT,24 h,15.8 s
same,Bas,24 h,0%
same,Eos,24 h,0.6%
same,Fbg,24 h,219.2 mg/dL
same,Hb,24 h,13.9 g/dL
same,Ht,24 h,41.2%
same,Lym,24 h,83.6%
same,MCH,24 h,22.2 pg
same,MCHC,24 h,33.6%
same,MCV,24 h,65.9 fL
same,Mono,24 h,4.6%
same,Neu,24 h,11.4%
same,PT,24 h,12.4 s
same,Plat,24 h,107.4 x10_4/uL
same,RBC,24 h,627.2 x10_4/ul
same,Ret,24 h,7.6%
same,WBC,24 h,117.5 x10_2/uL
same,KIDNEY_L,24 h,1 g
same,KIDNEY_R,24 h,1 g
same,KIDNEY_TOTAL,24 h,2 g
same,LIVER,24 h,11.3 g
same,A/G,24 h,2.1
same,ALP,24 h,1012.6 IU/L
same,ALT,24 h,35 IU/L
same,AST,24 h,61 IU/L
same,BUN,24 h,16.8 mg/dL
same,CRE,24 h,0.7 mg/dL
same,Ca,24 h,10.2 mg/dL
same,Cl,24 h,103.6 meq/L
same,DBIL,24 h,0.018 mg/dL
same,GLC,24 h,182 mg/dL
same,IP,24 h,7.9 mg/dL
same,K,24 h,4.9 meq/L
same,LDH,24 h,186.2 IU/L
same,Na,24 h,139.6 meq/L
same,PL,24 h,119.6 mg/dL
same,RALB,24 h,3.9 g/dL
same,TBIL,24 h,0.3 mg/dL
same,TC,24 h,70.8 mg/dL
same,TG,24 h,74.8 mg/dL
same,TP,24 h,5.9 g/dL
same,gamma-GTP,24 h,1.6 IU/L
